Calls of active or inactive are those of the source.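 How the source made its calls: active means compound that raises the TRPC4 channel signal at some tested dose, with a fitted concentration curve; inactive means the rest.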
Molecular target: Transient receptor potential cation channel C4 (TRPC4), mouse
Test: potentiators of mouse TRPC4 calcium response – cell-based, HEK293 TRPC4, Fluo-4 calcium flux, dose response (AID 493223)
Conditions: HEK293 TRPC4 cells, Fluo-4 calcium fluorescence ratio

| Structure (SMILES) | EC50 |
| --- | --- |
| CN(C)CCN(C)Cc1cc(Br)ccc1O | 1780 nM |
| CCN1CCN(Cc2cc(Br)ccc2O)CC1 | 860 nM |

Same assay, conditions: HEK293 TRPC4 cells, Fluo-4 calcium fluorescence ratio; at 20 µM (top of the series)

| Structure (SMILES) | fluorescence ratio, higher = potentiation |
| --- | --- |
| Oc1ccc(Br)cc1CN1CCOc2ccccc21 | inactive |
| COc1ccc(N2CCN(Cc3cc(F)ccc3O)CC2)cc1 | inactive |
| Oc1ccc(F)cc1CN1CCN(c2ccccn2)CC1 | inactive |
| Oc1ccc(Cl)cc1CN1CCN(c2ncccn2)CC1 | inactive |
| CN1CCN(Cc2cc(Br)ccc2O)CC1 | inactive |
| CC1CCN(Cc2cc(Br)ccc2O)CC1 | inactive |
| CC(C)(C)OC(=O)N1CCN(Cc2cc(Cl)ccc2O)CC1 | inactive |
| COCCN(C)Cc1cc(F)ccc1O | inactive |
| Oc1ccc(Cl)cc1CN1CCN(c2ccccn2)CC1 | inactive |
| Oc1ccc(Cl)cc1CN1CCC(N2CCOCC2)CC1 | inactive |
| CC1CC(C)CN(Cc2cc(F)ccc2O)C1 (stereo not drawn) | inactive |
| Oc1ccc(Cl)cc1CN1CCCCC1 | inactive |
| Oc1ccc(F)cc1CN1CCN(c2ccncc2)CC1 | inactive |
| Oc1ccc(Br)cc1CN1CCN(c2ccccn2)CC1 | inactive |
| Oc1ccc(F)cc1CN1CCCCC1 | inactive |
| CN1CCN(Cc2cc(Cl)ccc2O)CC1 | inactive |
| Oc1ccc(Cl)cc1CN1CCOc2ccccc21 | inactive |
| Oc1ccc(Br)cc1CN1CCCCC1 | inactive |
| CN1CCN(Cc2cc(F)ccc2O)CC1 | inactive |
| CCN(CC)Cc1cc(F)ccc1O | inactive |
| Oc1ccc(Br)cc1CN1CCCC1 | inactive |
| Oc1ccc(Br)cc1CN1CCN(CC2CCCO2)CC1 (stereo not drawn) | inactive |
| CCN(CC)Cc1cc(Br)ccc1O | inactive |
| CCN(CC)Cc1cc(Cl)ccc1O | inactive |
| CC1CCN(Cc2cc(F)ccc2O)CC1 | inactive |
| Oc1ccc(Cl)cc1CN1CCN(CC2CCCO2)CC1 (stereo not drawn) | inactive |

| Structure (SMILES) | fluorescence ratio, higher = potentiation |
| --- | --- |
| Oc1ccc(F)cc1CN1CCC(N2CCOCC2)CC1 | inactive |
| Oc1ccc(Cl)cc1CN1CCN(c2ccncc2)CC1 | inactive |
| Oc1ccc(Br)cc1CN1CCN(c2ccc(F)cc2F)CC1 | inactive |
| COCCN(C)Cc1cc(Br)ccc1O | inactive |
| COc1ccc(N2CCN(Cc3cc(Cl)ccc3O)CC2)cc1 | inactive |
| Oc1ccc(Cl)cc1CN1CCCC1 | inactive |
| Oc1ccc(F)cc1CN1CCN(c2ccc(F)cc2F)CC1 | inactive |
| Oc1ccc(F)cc1CN1CCN(c2ncccn2)CC1 | inactive |
| CN(C)CCN(C)Cc1cc(F)ccc1O | inactive |
| Oc1ccc(F)cc1CN1CCCC1 | inactive |
| CC(C)(C)OC(=O)N1CCN(Cc2cc(F)ccc2O)CC1 | inactive |
| Oc1ccc(Cl)cc1CN1CCN(c2ccc(F)cc2F)CC1 | inactive |
| COCCN(C)Cc1cc(Cl)ccc1O | inactive |
| CC1CC(C)CN(Cc2cc(Cl)ccc2O)C1 (stereo not drawn) | inactive |
| CC(C)(C)OC(=O)N1CCN(Cc2cc(Br)ccc2O)CC1 | inactive |
| COc1ccc(N2CCN(Cc3cc(Br)ccc3O)CC2)cc1 | inactive |
| Oc1ccc(Br)cc1CN1CCN(c2ccncc2)CC1 | inactive |
| Oc1ccc(F)cc1CN1CCOc2ccccc21 | inactive |
| Oc1ccc(Br)cc1CN1CCOCC1 | inactive |
| Oc1ccc(F)cc1CN1CCN(CC2CCCO2)CC1 (stereo not drawn) | inactive |
| Oc1ccc(Br)cc1CN1CCC(N2CCOCC2)CC1 | inactive |
| Oc1ccc(F)cc1CN1CCOCC1 | inactive |
| CC1CC(C)CN(Cc2cc(Br)ccc2O)C1 (stereo not drawn) | inactive |
| Oc1ccc(Br)cc1CN1CCN(c2ncccn2)CC1 | inactive |
| CC1CCN(Cc2cc(Cl)ccc2O)CC1 | inactive |

Reference: PubChem BioAssay AID493223 (Johns Hopkins Ion Channel Center, 2011)
